Data taken from US20020095030A1, “FLIP GENES AND FLIP PROTEINS” (priority 1997, published 2002).
Peptide text beside a SMILES is read from it. * marks the point of attachment. Cbz = O=C(OCc1ccccc1)*; CH2F = FC*

Tested on: 293T-cells
Assay: Apoptosis by over-expression of TRAMP in 293T cells (Cell Death Detection ELISA)
Type: cell-based, human
Conditions: 25 μM in medium

COC(=O)C[C@H](NC(=O)[C@H](C)NC(=O)[C@@H](NC(=O)OCc1ccccc1)C(C)C)C(=O)CF [z-VAD-fmk] (Cbz-Val-Ala-Asp(OMe)-CH2F)
protection of TRAMP over expressing cells: 100%
